In article PMC6270976, “Pharmacokinetic Study in Mice of Galphimine-A, an Anxiolytic Compound from Galphimia glauca” (Molecules, 2014):

Assay: Stability of G–A in mouse brain tissue homogenate under handling conditions
Assay type: in vitro ADME
Settings: for Observed Concentration ± S.D.: n = 6
Experimental: The stability of G–A in mice plasma and brain was assessed by analyzing replicates (n = 6) of QC samples at concentrations of 0.8, 4.0 and 10 μg/mL for mice plasma and brain. The investigation covered expected conditions during all of the sample storage and process periods, which included the stability data from freeze/thaw, bench-top, autosampler and long–term stability test. For all stability studies, freshly prepared and stability testing QC samples were evaluated by using freshly prepared standard curves for the measurement. The concentrations obtained from all stability studies were compared with the freshly prepared QC samples, and the percentage concentration deviation was calculated. The analytes were considered stable in mouse plasma and brain when the concentration difference between the freshly prepared samples and the stability samples was less than 15%.

[1] = brain tissue, 3 Freeze/thaw cycles (−70 °C), nominal 0.80 μg/mL
[2] = brain tissue, 3 Freeze/thaw cycles (−70 °C), nominal 4.00 μg/mL
[3] = brain tissue, 3 Freeze/thaw cycles (−70 °C), nominal 10.0 μg/mL
[4] = brain tissue, Autosampler stability (4 °C; 8 h), nominal 0.80 μg/mL
[5] = brain tissue, Autosampler stability (4 °C; 8 h), nominal 4.00 μg/mL
[6] = brain tissue, Autosampler stability (4 °C; 8 h), nominal 10.0 μg/mL
[7] = brain tissue, Long–term stability (−70 °C; 1 month), nominal 0.80 μg/mL
[8] = brain tissue, Long–term stability (−70 °C; 1 month), nominal 4.00 μg/mL
[9] = brain tissue, Long–term stability (−70 °C; 1 month), nominal 10.0 μg/mL

Time analyzable in the autosampler tray with acceptable precision and accuracy (brain tissue samples, 4 °C): over 8 h
Long-term storage stability (time stable) (brain tissue samples, −70 °C): over 1 month
Accuracy Bias [1]: 3.75%
Observed Concentration ± S.D. [1]: 0.83 ± 0.08 µg/mL
Accuracy Bias [2]: 9.00%
Observed Concentration ± S.D. [2]: 4.36 ± 0.34 µg/mL
Accuracy Bias [3]: 3.60%
Observed Concentration ± S.D. [3]: 10.36 ± 0.52 µg/mL
Accuracy Bias [4]: 8.75%
Observed Concentration ± S.D. [4]: 0.87 ± 0.11 µg/mL
Accuracy Bias [5]: −10.0%
Observed Concentration ± S.D. [5]: 3.60 ± 0.33 µg/mL
Accuracy Bias [6]: −1.70%
Observed Concentration ± S.D. [6]: 9.83 ± 0.43 µg/mL
Accuracy Bias [7]: −10.00%
Observed Concentration ± S.D. [7]: 0.72 ± 0.10 µg/mL
Accuracy Bias [8]: −6.75%
Observed Concentration ± S.D. [8]: 3.73 ± 0.41 µg/mL
Accuracy Bias [9]: 4.30%
Observed Concentration ± S.D. [9]: 10.43 ± 0.98 µg/mL
Freeze/thaw stability (brain tissue, three cycles, stored at −70 °C and thawed to room temperature): stable
Structure (SMILES): COC(=O)[C@@]12CC[C@]3(C)C([C@H](O)[C@H](O)[C@@]4([C@@H](C)O)COC(=O)C=C[C@H]43)[C@@]1(C)CC[C@@]1(C)CC=C(C)C[C@]12O (stereo partly drawn) [G–A, galphimine-A]
